Values after ≈ are worked out from the molar mass of the structure shown. A value given as a limit tells only on which side of the number the result lay.

Results on 17 compounds are retold here after ChEMBL document CHEMBL2157929, “Synthesis and structure-activity relationship of fused-pyrimidine derivatives as a series of novel GPR119 agonists” (Bioorg Med Chem, 2012).

The target in series [1] is T1, Glucose-dependent insulinotropic receptor (Homo sapiens) (UniProt Q8TDV5).
T1 sequence (whole entry): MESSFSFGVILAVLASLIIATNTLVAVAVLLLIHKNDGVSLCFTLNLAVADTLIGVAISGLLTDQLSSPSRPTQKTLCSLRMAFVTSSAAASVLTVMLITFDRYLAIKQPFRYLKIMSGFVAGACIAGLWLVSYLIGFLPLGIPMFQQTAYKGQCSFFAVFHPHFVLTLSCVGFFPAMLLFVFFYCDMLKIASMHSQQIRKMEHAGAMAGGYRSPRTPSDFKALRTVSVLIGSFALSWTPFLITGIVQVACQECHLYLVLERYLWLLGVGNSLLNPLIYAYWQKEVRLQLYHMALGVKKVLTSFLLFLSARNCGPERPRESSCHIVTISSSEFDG
Kind of series: Agonist activity at human recombinant GPR119 expressed in HEK293 cells co-expressing pCRE-Luc assessed as concentration required to showing equipotent efficacy to 2-(2-(4-bromophenyl)-6-methylpyrimidin-4-ylamino)ethanol after 6 hrs by cAMP reporter assay. The class given is functional, cell-based.

Series [2] has as its target T1, Glucose-dependent insulinotropic receptor (Homo sapiens). As to the kind of experiment: Agonist activity at human recombinant GPR119 expressed in HEK293 cells co-expressing pCRE-Luc at 10 uM after 6 hrs by cAMP reporter assay relative to 2-(2-(4-bromophenyl)-6-methylpyrimidin-4-ylamino)ethanol. The class given is functional, cell-based.
Series [3] has as its system Mus musculus. Kind of series: Antihyperglycemic activity in po dosed ICR mouse assessed as reduction of blood glucose level after 30 mins by oral glucose tolerance test. Type of series: functional. Conditions: 0.5 h, read-out: MED; call rule not given here.
Series [4] deals with Mus musculus. Kind of series: Antihyperglycemic activity in ICR mouse assessed as reduction of blood glucose level at 1 mg/kg, po after 30 mins by oral glucose tolerance test. The class given is functional. Details: scale not given: the % may be the effect or the level left.
Series [5] in a line: Solubility of compound at pH 6.8 after 20 hrs by precipitation method. Conditions: buffer. The class given is physicochemical.
Series [6] deals with Mus musculus. Kind of series: Antihyperglycemic activity in ICR mouse assessed as reduction of blood glucose level at 3 mg/kg, po after 30 mins by oral glucose tolerance test. The class given is functional. Details: scale not given: the % may be the effect or the level left.
A short description of series [7]: Inhibition of cytochrome P450 up to 50 uM. The class given is ADME.
The nature of series [8]: Clearance in human liver microsomes. The class given is ADME, Microsome. The following applies: read-out: CLH.
The subject of series [9] is Mus musculus. As to the kind of experiment: Antihyperglycemic activity in ICR mouse assessed as reduction of blood glucose level at 0.1 mg/kg, po after 30 mins by oral glucose tolerance test. The class given is functional. On the set-up: scale not given: the % may be the effect or the level left.
Series [10] concerns Mus musculus. Kind of series: Antihyperglycemic activity in ICR mouse assessed as reduction of blood glucose level at 0.3 mg/kg, po after 30 mins by oral glucose tolerance test. The class given is functional. Details: scale not given: the % may be the effect or the level left.

Regarding `Fc1cc(-c2nc3c(c(N4CCOCC4)n2)CCC3)c(F)cc1Cl`, in [1], the EC amounted to 350 nM. In addition, the Intrinsic activity in series [2] was found to be 405%.
For `Fc1cc(-c2nc3c(c(N4CCOCC4)n2)CCS3)c(F)cc1Cl`, in that order: 970 nM and 258%.
On to `O=S1(=O)Cc2nc(-c3cc(F)c(Cl)cc3F)nc(N3CCC(CO)CC3)c2C1`, for which, in series [1], the EC was 3.9 nM. Besides, the minimal effective dose in series [3] was determined as 0.3 mg/kg. Moreover, in series [2], the Intrinsic activity was determined as 501%. For the same compound, the Activity in series [4] was determined as 29%. The same compound came in with a kinetic solubility at 20 h in series [5] of 16 µM (≈ 6.88 µg/mL).
In the case of `O=C(O)C1CCN(c2nc(-c3cc(F)c(Cl)cc3F)nc3c2CS(=O)(=O)C3)CC1`, the EC in series [1] is 560 nM. Further, the minimal effective dose in series [3] was greater than 3 mg/kg. Besides, the Activity in series [6] is 15%. Further, the Intrinsic activity in series [2] came out at 528%.
In the case of `Fc1cc(-c2nc3c(c(N4CCOCC4)n2)COC3)c(F)cc1Cl`, in series [1], the EC came to 4100 nM. Also, the Intrinsic activity in [2] was found to be 205%.
Turning to `O=S1(=O)Cc2nc(-c3cc(F)c(Cl)cc3F)nc(N3CCOCC3)c2C1`, the EC in [1] came to 28 nM. Moreover, the minimal effective dose in series [3] is 1 mg/kg. For the same compound, in [2], the Intrinsic activity was determined as 668%. Further, in series [4], the Activity was 30%. In addition, the kinetic solubility at 20 h in [5] was less than 1 µM.
For `CN(C)C(=O)C1CCN(c2nc(-c3cc(F)c(Cl)cc3F)nc3c2CS(=O)(=O)C3)CC1`, in that order: 350 nM, 1 mg/kg, 292%, 32% and greater than 100 µM.
`NC(=O)CC1CCN(c2nc(-c3cc(F)c(Cl)cc3F)nc3c2CS(=O)(=O)C3)CC1`: the “inhibition (INH)” value in series [7] is reported as “Not Active”. Besides, the EC in [1] came to 8.3 nM. For the same compound, in [8], the CLint scaled came out at 58 mL/min/kg. The Activity is reported as 27% in [9] and 35% in series [4]. Moreover, the minimal effective dose in [3] came out at 0.1 mg/kg. Besides, in [2], the Intrinsic activity came out at 483%. The same compound showed a solubility (kinetic) at 20 h in series [5] of 15 µM (≈ 6.85 µg/mL).
With `CNC(=O)C1CCN(c2nc(-c3cc(F)c(Cl)cc3F)nc3c2CS(=O)(=O)C3)CC1`, in [1], the EC is 51 nM. The minimal effective dose in [3] stood at 3 mg/kg. For the same compound, the Intrinsic activity in [2] worked out at 457%. The kinetic solubility at 20 h in [5] stood at 11 µM (≈ 5.03 µg/mL).
Turning to `NC(=O)C1CCN(c2nc(-c3cc(F)c(Cl)cc3F)nc3c2CS(=O)(=O)C3)CC1`, the EC in series [1] was 21 nM. For the same compound, the minimal effective dose in series [3] is 3 mg/kg. Also, the Intrinsic activity in [2] is 294%. Moreover, the Activity in series [4] came to 12%. In [5], this compound showed a solubility (kinetic) at 20 h of 40 µM (≈ 17.7 µg/mL).
In the case of `Fc1cc(-c2nc3c(c(N4CCOCC4)n2)SCC3)c(F)cc1Cl`, the EC in series [1] is 57 nM. Besides, the Intrinsic activity in series [2] was found to be 426%.
As for `NC(=O)CN1CCN(c2nc(-c3cc(F)c(Cl)cc3F)nc3c2CS(=O)(=O)C3)CC1`, the EC in series [1] turned out to be 44 nM. The minimal effective dose in series [3] amounted to 3 mg/kg. In addition, in series [2], the Intrinsic activity was 737%. For the same compound, in series [4], the Activity turned out to be 17%. Moreover, in series [5], the solubility (kinetic) at 20 h was greater than 100 µM.
In the case of `O=S1(=O)Cc2nc(-c3cc(F)c(Cl)cc3F)nc(N3CCC(CCO)CC3)c2C1`, the EC in series [1] amounted to 2.8 nM. Further, the minimal effective dose in series [3] was 1 mg/kg. The Intrinsic activity in series [2] was found to be 506%. Besides, the Activity in series [4] is 29%. The solubility (kinetic) at 20 h in series [5] is 23 µM (≈ 10.2 µg/mL).
On to `Fc1cc(-c2nc3c(c(N4CCOCC4)n2)CSC3)c(F)cc1Cl`, for which, in series [1], the EC is 150 nM. For the same compound, in series [2], the Intrinsic activity was 467%.
Turning to `NC(=O)CCC1CCN(c2nc(-c3cc(F)c(Cl)cc3F)nc3c2CS(=O)(=O)C3)CC1`, the EC in series [1] is 18 nM. Moreover, the minimal effective dose in series [3] came to 0.3 mg/kg. In addition, in series [2], the Intrinsic activity turned out to be 627%. The compound also came in with a kinetic solubility at 20 h in [5] of 8 µM (≈ 3.77 µg/mL). In addition, the Activity in [10] is 30%.
Turning to `Fc1cc(-c2nc3c(c(N4CCOCC4)n2)CCCC3)c(F)cc1Cl`, in series [1], the EC came out at 770 nM. The Intrinsic activity in series [2] is 313%.
`O=S1(=O)Cc2nc(-c3cc(F)c(Cl)cc3F)nc(N3CCC(O)CC3)c2C1`: the EC in series [1] stood at 14 nM. In series [3], the minimal effective dose came to 1 mg/kg. Moreover, in series [2], the Intrinsic activity is 575%. Besides, the Activity in series [4] came out at 32%. Also, in series [5], the solubility (kinetic) at 20 h was found to be 91 µM (≈ 37.8 µg/mL).
